System: ovarian cancer cell lines
Assay: Cell growth inhibition (viable cell count, trypan blue exclusion) of ovarian cancer cell lines after seven days with inhibitor; logIC50 modelled against alteration status
Format: cell-based, human
Conditions: for increased sensitivity to PARP inhibition: from difference of mean log IC50
Protocol: To begin to understand the relationship between genomic, epigenetic and expression alterations and response to pathway inhibitors, a screening platform was developed for evaluating cellular proliferation in the presence of candidate therapeutic agents. As an example of the analyses that can be performed and the genotype-phenotype connections that can be obtained, IC20, IC50, and IC80 were measured after seven days of incubation for three inhibitors, GNE-493, BMN673, and MEK162, targeting PI3K, PARP, and MEK proteins, respectively (Table 11). Aggregating the molecular information from multiple platforms to the gene level, analyses was limited to genes that were altered in three or more of the 45 cell lines. Alterations that tend to be mutually exclusive between cell lines were combined, including genes in the PI3K pathway (PIK3CA and PPP2R1A) and the genes in the TGFBR pathway (SMAD3 and SMAD4). As tumors with homologous recombination deficiencies (HRD) have been known to be sensitive to PARP inhibitors, covariates summarizing the extent of genome-wide structural alterations for the PARP inhibitor BMN673 were additionally added. A priori it was hypothesized that most alterations would not modulate response to the targeted inhibitors. Implementing a Bayesian model averaging approach to variable selection as has been considered for other biomarkers (see, e.g., Viallefont et al., 2001 Statistics in Medicine 20:3215-3230; Neto et al., 2014 Pacific Symposium on Biocomputing. Pacific Symposium on Biocomputing: 27-38; and Meisner et al., 2018 Biomarker research 6:3), a positive prior probability that the coefficient for each gene is exactly zero was specified. Given the genes or combination of genes and structural variant summaries, the space of possible single- and multi-variate models for logIC50 was explored by Markov Chain Monte Carlo. Relevant posterior summaries available for each inhibitor include the probability that the regression coefficient is non-zero and the posterior distribution of the regression coefficients.
Cell lines were obtained from multiple sources (Table 1). Cells were plated into 24-well tissue culture plates at a density of 2×10^5 to 5×10^5 cells per well and grown in cell-line-specific medium without or with increasing concentrations of their respective drugs (ranging between […]).
Cells were counted on day 7 using an automated cell viability assay (Vi-CELL XR Cell Viability Analyzer, Beckman Coulter, Fullerton, Calif., USA), a video imaging system that uses an automated trypan blue exclusion protocol. Both adherent and floating viable cells were counted for treatment and control wells. Growth inhibition (GI) was calculated as a percentage of untreated controls. The log of the fractional GI was then plotted against the log of the drug concentration and the IC50 values were interpolated from the resulting linear regression curve fit (CalcuSyn; Biosoft, Ferguson, Mo., USA). Experiments were performed thrice in duplicate for each cell line.
Bayesian model averaging: models of the form
were considered where Ci denotes the logIC50 and xi;j an indicator for the alteration status (0 not altered, 1 altered) of feature j in cell line i. The regression coefficient for feature j is the product of a binary indicator zj and a real number hj. A modified g-prior was used for γ such that γj was zero whenever zj was zero. For the vector of γ's with non-zero z's, a multivariate normal prior was used. The space of the possible 2p models was explored using a Gibbs sampler. The binary features comprising the x's included somatic mutations, somatic structural variants (deletions, amplifications, in-frame fusions), methylation, and under- or over-expression. For the PARP inhibitor, the number of intra-chromosomal rearrangements and the HRD score as potential markers for HRD were additionally considered. […]

## Cn1cnc2c(F)c(Nc3ccc(Br)cc3F)c(C(=O)NOCCO)cc21 [MEK-162, binimetinib]
Cell lines with mutations or deletions in SMAD3 or SMAD4
  increased sensitivity: 89%

## CC(C)(O)c1cc2nc(-c3cnc(N)nc3)nc(N3CCOCC3)c2s1 [GNE-493]
Cancer cell lines with mutations in PARP1 or PPP2R1A (so in the source)
  increased sensitivity: 66%
Cell lines with mutations in PIK3CA or PPP2R1A vs without, 7 days incubation
  difference in mean logIC50 by alteration status: −0.63
Cell lines with mutations in PIK3CA or PPP2R1A vs without, FIG. 6B legend, 90% HPD: 5-72
  increased sensitivity to the inhibitor: 48%

## Cn1ncnc1[C@H]1c2n[nH]c(=O)c3cc(F)cc(c23)N[C@@H]1c1ccc(F)cc1 [BMN673, talazoparib]
Cell lines with MYC amplification vs without, 90% CI: 99%-64%
  increased sensitivity to PARP inhibition: 93%
Cell lines with inactivating BRCA1/2 mutations, HRD score, PARP1 expression
  association with sensitivity to PARP inhibition: trend towards increased sensitivity to PARP inhibition but were not statistically significant
Cell lines with increased number of genome-wide rearrangements vs without, 90% CI, 96%-43%
  increased sensitivity to PARP inhibition: 86%

From US20210355545A1, “METHODS AND MATERIALS FOR ASSESSING AND TREATING CANCER” (The Johns Hopkins University, priority 2018, published 2021)
